Data on 14 compounds can be found in patent publication US12084434B2 (Scorpion Therapeutics, Inc., priority 2021, dated 2024).

The structures appear in SMILES notation. pIC50: −log10 of the molar value. Where two headings read alike, the source gives them in different places. Bounds are passed on as bounds.

The assay concerns T47D pAKT (S473), PI3Kα H1047R mutation present. Briefly: HTRF pAKT-T47D.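 As to all read-outs here: assay medium was RPMI with 10% FBS and 0.2 units/ml bovine insulin, without phenol red.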 The note with it: for pIC50: read-out: T47D pAKT IC50, T47D.1 cells, pAKT (S473) HTRF, 1 hour; for IC50: Homo sapiens, T47D, 1 h, read-out: T47D pAKT IC50 (nM), T47D.1 cells, pAKT (S473) HTRF, 1 hour.

On to `Cc1c(C(NC(=O)Nc2ccc(N3CC(O)C3)nc2)C(F)(F)F)oc2c(F)cc(F)cc12` (racemic) [Compound 179, 3-[1-(5,7-difluoro-3-methyl-1-benzofuran-2-yl)-2,2,2-trifluoroethyl]-1-[6-(3-hydroxyazetidin-1-yl)pyridin-3-yl]urea], for which the negative logarithm of the IC50 (pIC50) is < 5.30.
Consider `Cc1c(C(NC(=O)Nc2ccc(N3CC(O)C3)nc2)C(F)(F)F)oc2c(F)cc(F)cc12` (racemic) [Compound 180, 3-[1-(5,7-difluoro-3-methyl-1-benzofuran-2-yl)-2,2,2-trifluoroethyl]-1-[6-(3-hydroxyazetidin-1-yl)pyridin-3-yl]urea], for which the pIC50 was > 6.00.
With `Cc1c(C(NC(=O)Nc2cnc(N3CC(S(C)(=O)=O)C3)nc2)C(F)(F)F)oc2c(F)cc(F)cc12` (racemic) [Compound 185, 1-(1-(5,7-difluoro-3-methylbenzofuran-2-yl)-2,2,2-trifluoroethyl)-3-(2-(3-(methylsulfonyl)azetidin-1-yl)pyrimidin-5-yl)urea], the half-inhibitory concentration (IC50) is 1000 to 5000 nM.
As for `Cc1c(C(NC(=O)Nc2cnc(N3CC(S(C)(=O)=O)C3)nc2)C(F)(F)F)oc2c(F)cc(F)cc12` (racemic) [Compound 186, 1-(1-(5,7-difluoro-3-methylbenzofuran-2-yl)-2,2,2-trifluoroethyl)-3-(2-(3-(methylsulfonyl)azetidin-1-yl)pyrimidin-5-yl)urea], the pIC50 is > 6.00.
`Cc1c([C@@H](NC(=O)Nc2cnc(N3C[C@@H](O)[C@@H]3C)nc2)C(C)C)oc2ccc(F)cc12` (relative stereo) [Compound 148, 3-[(1S)-1-(5-fluoro-3-methyl-1-benzofuran-2-yl)-2-methylpropyl]-1-{2-[(2R*,3R**)-3-hydroxy-2-methylazetidin-1-yl]pyrimidin-5-yl}urea]: the 50% inhibitory concentration (IC50) is < 1000 nM.
Take `Cc1c([C@@H](NC(=O)Nc2cnc(N3C[C@H](O)[C@H]3C)nc2)C(C)C)oc2ccc(F)cc12` (relative stereo) [Compound 149, 3-[(1S)-1-(5-fluoro-3-methyl-1-benzofuran-2-yl)-2-methylpropyl]-1-{2-[(2R*,3R**)-3-hydroxy-2-methylazetidin-1-yl]pyrimidin-5-yl}urea]: the IC50 is < 1000 nM.
In the case of `Cc1c([C@@H](NC(=O)Nc2cnc(N3CC(O)C3)nc2)C(F)(F)F)oc2c(F)cc(F)cc12` (single isomer, unassigned) [Compound 91], the IC50 was < 1000 nM.
Same read-out and setting: the result for `Cc1c([C@H](NC(=O)Nc2cnc(N3CC(C)(O)C3)nc2)C(F)(F)F)oc2c(F)cc(F)cc12` (single isomer, unassigned) [Compound 93] reads < 1000 nM; that for `CC[C@H](NC(=O)Nc1cnc(N)nc1)c1oc2ccc(F)cc2c1C` (single isomer, unassigned) [Compound 100], < 1000 nM.
As to `Cc1c(C(NC(=O)Nc2cnc(N[C@H](C)CO)nc2)C(F)(F)F)oc2c(F)cc(F)cc12` (single isomer, unassigned) [Compound 187], the pIC50 was < 5.30.
Take `Cc1c(C(NC(=O)Nc2cnc(N[C@H](C)CO)nc2)C(F)(F)F)oc2c(F)cc(F)cc12` (single isomer, unassigned) [Compound 188]: the negative-log IC50 (pIC50) was > 6.00.
Take `Cc1c(C(NC(=O)Nc2cnc(N3CCNC(=O)C3)nc2)C(F)(F)F)oc2c(F)cc(F)cc12` (single isomer, unassigned) [Compound 189, 1-(1-(5,7-difluoro-3-methylbenzofuran-2-yl)-2,2,2-trifluoroethyl)-3-(2-(3-oxopiperazin-1-yl)pyrimidin-5-yl)urea]: the pIC50 is > 6.00.
As for `Cc1c(C(NC(=O)Nc2cnc(N3CCNC(=O)C3)nc2)C(F)(F)F)oc2c(F)cc(F)cc12` (single isomer, unassigned) [Compound 190, 1-(1-(5,7-difluoro-3-methylbenzofuran-2-yl)-2,2,2-trifluoroethyl)-3-(2-(3-oxopiperazin-1-yl)pyrimidin-5-yl)urea], the pIC50 was < 5.30.
Consider `Cc1c(C(NC(=O)Nc2cnc(N3CCC(O)CC3)nc2)C(F)(F)F)oc2c(F)cc(F)cc12` (single isomer, unassigned) [Compound 191], for which the IC50 fell in the range of 1000 to 5000 nM.
